Test results taken from ChEMBL document CHEMBL4725279, “Design and synthesis of peptide-based chimeric molecules to induce degradation of the estrogen and androgen receptors” (Bioorg Med Chem, 2020).

Columns and labels:
Assay type in all cases: cell-based
[1] = molecular target: T1, IAP-Estrogen receptor (Homo sapiens) (UniProt P03372+P98170+Q13490); assay: SNIPER activity at IAP/ERalpha in human MCF7 cells assessed as induction of ERalpha protein degradation by measuring ERalpha protein level at 20 uM incubated for 8 hrs in presence of proteasome inhibitor, MG132 by western blot analysis relative to lamin B
[2] = molecular target: T2, IAP/Androgen receptor (Homo sapiens) (UniProt P10275+P98170+Q13490); assay: SNIPER activity at IAP/AR in human MCF7 cells assessed as induction of AR protein degradation by measuring AR protein level at 20 uM incubated for 24 hrs by western blot analysis relative to lamin B
[3] = molecular target: T2, IAP/Androgen receptor (Homo sapiens); assay: SNIPER activity at IAP/AR in human MCF7 cells assessed as induction of AR protein degradation incubated for 8 to 24 hrs by western blot analysis; conditions: time hrs 8-24
[4] = molecular target: T2, IAP/Androgen receptor (Homo sapiens); assay: SNIPER activity at IAP/AR in human MCF7 cells assessed as induction of AR protein degradation by measuring AR protein level at 10 uM incubated for 24 hrs by western blot analysis relative to lamin B
[5] = molecular target: T3, Baculoviral IAP repeat-containing protein 2/E3 ubiquitin-protein ligase XIAP/Aryl hydrocarbon receptor (Homo sapiens, UniProt P35869+P98170+Q13490); assay: SNIPER activity at IAP/AhR in human MCF7 cells assessed as induction of AhR protein degradation by measuring AhR protein level at 20 uM incubated for 8 hrs in presence of ubiquitin activating inhibitor MLN7243 by western blot analysis relative to lamin B; conditions: mcf7, 8 h
[6] = molecular target: T1, IAP-Estrogen receptor (Homo sapiens); assay: SNIPER activity at IAP/ERalpha in human MCF7 cells assessed as induction of ERalpha protein degradation by measuring ERalpha protein level at 20 uM incubated for 24 hrs by western blot analysis relative to lamin B
[7] = molecular target: T2, IAP/Androgen receptor (Homo sapiens); assay: SNIPER activity at IAP/AR in human MCF7 cells assessed as induction of AR protein degradation by measuring AR protein level at 5 uM incubated for 24 hrs by western blot analysis relative to lamin B
[8] = molecular target: T2, IAP/Androgen receptor (Homo sapiens); assay: SNIPER activity at IAP/AR in human MCF7 cells assessed as induction of AR protein degradation by measuring AR protein level at 5 uM incubated for 8 hrs by western blot analysis relative to lamin B
[9] = molecular target: T1, IAP-Estrogen receptor (Homo sapiens); assay: SNIPER activity at IAP/ERalpha in human MCF7 cells assessed as induction of ERalpha protein degradation by measuring ERalpha protein level at 10 uM incubated for 8 hrs by western blot analysis relative to lamin B
[10] = molecular target: T1, IAP-Estrogen receptor (Homo sapiens); assay: SNIPER activity at IAP/ERalpha in human MCF7 cells assessed as induction of ERalpha protein degradation incubated for 8 to 24 hrs by western blot analysis; conditions: time hrs 8-24
[11] = molecular target: T2, IAP/Androgen receptor (Homo sapiens); assay: SNIPER activity at IAP/AR in human MCF7 cells assessed as induction of AR protein degradation by measuring AR protein level at 20 uM incubated for 8 hrs in presence of proteasome inhibitor, MG132 by western blot analysis relative to lamin B
[12] = molecular target: T1, IAP-Estrogen receptor (Homo sapiens); assay: SNIPER activity at IAP/ERalpha in human MCF7 cells assessed as induction of ERalpha protein degradation by measuring ERalpha protein level at 20 uM incubated for 8 hrs in presence of ubiquitin activating inhibitor MLN7243 by western blot analysis relative to lamin B
[13] = molecular target: T3, Baculoviral IAP repeat-containing protein 2/E3 ubiquitin-protein ligase XIAP/Aryl hydrocarbon receptor; assay: SNIPER activity at IAP/AhR in human MCF7 cells assessed as induction of AhR protein degradation by measuring AhR protein level at 5 uM incubated for 8 hrs by western blot analysis relative to lamin B; conditions: mcf7, 8 h
[14] = molecular target: T1, IAP-Estrogen receptor (Homo sapiens); assay: SNIPER activity at IAP/ERalpha in human MCF7 cells assessed as induction of ERalpha protein degradation by measuring ERalpha protein level at 5 uM incubated for 24 hrs by western blot analysis relative to lamin B
[15] = molecular target: T3, Baculoviral IAP repeat-containing protein 2/E3 ubiquitin-protein ligase XIAP/Aryl hydrocarbon receptor; assay: SNIPER activity at IAP/AhR in human MCF7 cells assessed as induction of AhR protein degradation by measuring AhR protein level at 5 uM incubated for 24 hrs by western blot analysis relative to lamin B; conditions: mcf7, 24 h
[16] = molecular target: T1, IAP-Estrogen receptor (Homo sapiens); assay: SNIPER activity at IAP/ERalpha in human MCF7 cells assessed as induction of ERalpha protein degradation by measuring ERalpha protein level at 20 uM incubated for 8 hrs by western blot analysis relative to lamin B
[17] = molecular target: T2, IAP/Androgen receptor (Homo sapiens); assay: SNIPER activity at IAP/AR in human MCF7 cells assessed as induction of AR protein degradation by measuring AR protein level at 20 uM incubated for 8 hrs by western blot analysis relative to lamin B
[18] = molecular target: T2, IAP/Androgen receptor (Homo sapiens); assay: SNIPER activity at IAP/AR in human MCF7 cells assessed as induction of AR protein degradation by measuring AR protein level at 10 uM incubated for 8 hrs by western blot analysis relative to lamin B
[19] = molecular target: T1, IAP-Estrogen receptor (Homo sapiens); assay: SNIPER activity at IAP/ERalpha in human MCF7 cells assessed as induction of ERalpha protein degradation by measuring ERalpha protein level at 10 uM incubated for 24 hrs by western blot analysis relative to lamin B
[20] = molecular target: T3, Baculoviral IAP repeat-containing protein 2/E3 ubiquitin-protein ligase XIAP/Aryl hydrocarbon receptor; assay: SNIPER activity at IAP/AhR in human MCF7 cells assessed as induction of AhR protein degradation by measuring AhR protein level at 20 uM incubated for 8 hrs in presence of proteasome inhibitor, MG132 by western blot analysis relative to lamin B; conditions: mcf7, 8 h
[21] = molecular target: T2, IAP/Androgen receptor (Homo sapiens); assay: SNIPER activity at IAP/AR in human MCF7 cells assessed as induction of AR protein degradation by measuring AR protein level at 20 uM incubated for 8 hrs in presence of ubiquitin activating inhibitor MLN7243 by western blot analysis relative to lamin B
[22] = molecular target: T3, Baculoviral IAP repeat-containing protein 2/E3 ubiquitin-protein ligase XIAP/Aryl hydrocarbon receptor; assay: SNIPER activity at IAP/AhR in human MCF7 cells assessed as induction of AhR protein degradation by measuring AhR protein level at 20 uM incubated for 24 hrs by western blot analysis relative to lamin B; conditions: mcf7, 24 h
[23] = molecular target: T3, Baculoviral IAP repeat-containing protein 2/E3 ubiquitin-protein ligase XIAP/Aryl hydrocarbon receptor; assay: SNIPER activity at IAP/AhR in human MCF7 cells assessed as induction of AhR protein degradation by measuring AhR protein level at 20 uM incubated for 8 hrs by western blot analysis relative to lamin B; conditions: mcf7, 8 h
[24] = molecular target: T1, IAP-Estrogen receptor (Homo sapiens); assay: SNIPER activity at IAP/ERalpha in human MCF7 cells assessed as induction of ERalpha protein degradation by measuring ERalpha protein level at 5 uM incubated for 8 hrs by western blot analysis relative to lamin B
[25] = molecular target: T3, Baculoviral IAP repeat-containing protein 2/E3 ubiquitin-protein ligase XIAP/Aryl hydrocarbon receptor; assay: SNIPER activity at IAP/AhR in human MCF7 cells assessed as induction of AhR protein degradation by measuring AhR protein level at 10 uM incubated for 8 hrs by western blot analysis relative to lamin B; conditions: mcf7, 8 h
[26] = molecular target: T3, Baculoviral IAP repeat-containing protein 2/E3 ubiquitin-protein ligase XIAP/Aryl hydrocarbon receptor; assay: SNIPER activity at IAP/AhR in human MCF7 cells assessed as induction of AhR protein degradation by measuring AhR protein level at 10 uM incubated for 24 hrs by western blot analysis relative to lamin B; conditions: mcf7, 24 h

T3 sequence (P35869 whole entry): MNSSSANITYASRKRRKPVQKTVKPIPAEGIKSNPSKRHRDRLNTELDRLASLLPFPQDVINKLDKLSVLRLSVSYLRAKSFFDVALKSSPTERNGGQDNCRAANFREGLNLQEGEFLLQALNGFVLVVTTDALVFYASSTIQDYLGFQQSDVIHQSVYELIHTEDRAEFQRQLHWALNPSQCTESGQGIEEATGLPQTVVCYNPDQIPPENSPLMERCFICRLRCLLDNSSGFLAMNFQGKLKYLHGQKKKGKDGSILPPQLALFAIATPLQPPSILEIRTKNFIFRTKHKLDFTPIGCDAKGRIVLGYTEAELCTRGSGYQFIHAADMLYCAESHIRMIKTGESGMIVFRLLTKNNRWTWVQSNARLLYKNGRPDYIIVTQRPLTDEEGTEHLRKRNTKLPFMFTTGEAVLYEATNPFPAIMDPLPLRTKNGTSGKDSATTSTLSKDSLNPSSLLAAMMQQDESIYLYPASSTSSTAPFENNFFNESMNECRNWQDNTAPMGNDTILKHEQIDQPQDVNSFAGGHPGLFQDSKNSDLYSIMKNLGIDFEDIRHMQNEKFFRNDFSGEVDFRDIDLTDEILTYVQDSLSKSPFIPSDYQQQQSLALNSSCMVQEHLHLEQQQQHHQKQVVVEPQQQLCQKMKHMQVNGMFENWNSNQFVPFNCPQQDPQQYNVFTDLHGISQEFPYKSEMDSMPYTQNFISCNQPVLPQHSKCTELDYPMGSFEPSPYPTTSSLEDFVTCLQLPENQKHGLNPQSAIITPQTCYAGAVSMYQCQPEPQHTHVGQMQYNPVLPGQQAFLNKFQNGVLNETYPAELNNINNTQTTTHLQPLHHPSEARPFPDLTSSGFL
T3 sequence (P98170 whole entry): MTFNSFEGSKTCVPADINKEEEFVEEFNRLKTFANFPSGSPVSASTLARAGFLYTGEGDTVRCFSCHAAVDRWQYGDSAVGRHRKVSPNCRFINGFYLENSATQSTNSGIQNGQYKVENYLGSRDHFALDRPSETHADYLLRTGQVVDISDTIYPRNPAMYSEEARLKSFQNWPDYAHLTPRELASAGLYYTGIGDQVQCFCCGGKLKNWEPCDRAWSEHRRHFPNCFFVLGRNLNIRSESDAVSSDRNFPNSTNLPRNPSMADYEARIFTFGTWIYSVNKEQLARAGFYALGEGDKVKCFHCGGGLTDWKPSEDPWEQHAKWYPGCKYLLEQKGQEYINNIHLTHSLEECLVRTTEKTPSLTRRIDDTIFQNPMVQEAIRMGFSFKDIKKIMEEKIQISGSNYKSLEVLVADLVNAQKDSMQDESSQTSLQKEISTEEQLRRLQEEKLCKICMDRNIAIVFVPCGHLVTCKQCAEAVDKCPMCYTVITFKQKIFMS
T3 sequence (Q13490 whole entry): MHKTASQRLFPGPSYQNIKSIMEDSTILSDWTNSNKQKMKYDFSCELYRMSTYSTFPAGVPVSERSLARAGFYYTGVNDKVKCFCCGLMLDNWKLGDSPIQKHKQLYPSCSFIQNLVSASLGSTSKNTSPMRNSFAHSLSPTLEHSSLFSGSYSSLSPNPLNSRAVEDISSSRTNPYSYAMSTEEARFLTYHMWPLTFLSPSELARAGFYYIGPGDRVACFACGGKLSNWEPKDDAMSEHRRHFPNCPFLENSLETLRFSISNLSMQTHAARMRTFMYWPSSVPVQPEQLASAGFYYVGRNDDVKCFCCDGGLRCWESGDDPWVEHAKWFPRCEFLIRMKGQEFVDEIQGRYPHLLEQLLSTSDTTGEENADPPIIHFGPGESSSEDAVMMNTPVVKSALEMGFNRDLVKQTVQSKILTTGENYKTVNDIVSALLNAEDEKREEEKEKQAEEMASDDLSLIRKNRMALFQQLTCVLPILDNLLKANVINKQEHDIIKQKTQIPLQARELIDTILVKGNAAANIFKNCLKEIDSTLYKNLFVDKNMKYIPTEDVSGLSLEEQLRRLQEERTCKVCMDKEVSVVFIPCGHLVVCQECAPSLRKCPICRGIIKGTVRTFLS
T1 sequence (P03372 whole entry, looked up): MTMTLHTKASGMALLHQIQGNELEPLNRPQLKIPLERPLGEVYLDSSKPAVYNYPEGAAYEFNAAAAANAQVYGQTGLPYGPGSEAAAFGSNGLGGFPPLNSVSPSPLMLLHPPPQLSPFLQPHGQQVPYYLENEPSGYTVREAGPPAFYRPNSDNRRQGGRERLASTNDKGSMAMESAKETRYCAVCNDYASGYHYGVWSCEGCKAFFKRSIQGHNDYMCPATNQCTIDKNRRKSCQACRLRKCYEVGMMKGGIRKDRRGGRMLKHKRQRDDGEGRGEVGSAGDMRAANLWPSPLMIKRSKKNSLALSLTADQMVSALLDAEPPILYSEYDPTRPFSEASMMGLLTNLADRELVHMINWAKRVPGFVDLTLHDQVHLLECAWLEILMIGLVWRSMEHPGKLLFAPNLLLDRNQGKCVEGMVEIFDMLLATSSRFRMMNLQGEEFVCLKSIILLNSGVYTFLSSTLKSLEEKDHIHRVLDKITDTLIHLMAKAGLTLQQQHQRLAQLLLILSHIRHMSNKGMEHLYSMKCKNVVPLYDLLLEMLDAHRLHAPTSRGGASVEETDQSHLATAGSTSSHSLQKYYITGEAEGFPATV
T1 sequence (P98170 whole entry, looked up): as the sequence (P98170 whole entry) above
T1 sequence (Q13490 whole entry, looked up): as the sequence (Q13490 whole entry) above

Compound: CC[C@H](C)[C@@H]1NC(=O)[C@H](NC(=O)[C@@H](N)CCCCNC(=O)COCCOCCNC(=O)COCCOCCNC(=O)[C@@H](NC(=O)[C@@H]2CCCN2C(=O)[C@@H](NC(=O)[C@H](C)NC)C2CCCCC2)C(c2ccccc2)c2ccccc2)CSSC[C@@H](C(=O)N[C@@H](CCCNC(=N)N)C(=O)N[C@@H](CC(C)(C)C)C(=O)N[C@@H](CC(C)C)C(=O)N[C@@H](CCC(N)=O)C(=O)NCC(=O)NCC(=O)NCC(=O)N[C@@H](CCCNC(=N)N)C(=O)N[C@@H](CCCNC(=N)N)C(=O)N[C@@H](CCCNC(=N)N)C(=O)N[C@@H](CCCNC(=N)N)C(=O)N[C@@H](CCCNC(=N)N)C(=O)N[C@@H](CCCNC(=N)N)C(=O)N[C@@H](CCCNC(=N)N)C(N)=O)NC(=O)[C@H](CC(C)C)NC1=O
- Activity [1]: 88%
- Activity [2]: 57%
- Activity [3]: Dose-dependent effect
- Activity [4]: 152%
- Activity [5]: 107%
- Activity [6]: 34%
- Activity [7]: 97%
- Activity [8]: 80%
- Activity [9]: 66%
- Activity [10]: Dose-dependent effect
- Activity [11]: 90%
- Activity [12]: 119%
- Activity [13]: 119%
- Activity [14]: 79%
- Activity [15]: 97%
- Activity [16]: 48%
- Activity [17]: 35%
- Activity [18]: 56%
- Activity [19]: 75%
- Activity [20]: 91%
- Activity [21]: 110%
- Activity [22]: 125%
- Activity [23]: 82%
- Activity [24]: 84%
- Activity [25]: 129%
- Activity [26]: 189%
